Publication PMC9320114 (Molecules, 2022)

What was measured:
MurC = MurC (Escherichia coli, UniProt P17952); test: Inhibition of MurC, colorimetric malachite green method; type: biochemical, bacterial; settings: for remaining activity at 100 µM: 0.25 h, residual activity at 100 µM, read-out: MurC RA (%); for remaining activity at 100 µM / IC50: Table 2; for IC50: IC50 ± SEM, read-out: MurC IC50; for MurC inhibition (in words): assayed at 100 µM
Procedure: Inhibition of Mur enzymes was monitored with the colorimetric malachite green method, which measured orthophosphate formed during reaction. The mixtures with a final volume of 50 µL contained:
MurC: 50 mM HEPES-NaOH, pH 8.0, 5 mM MgCl2, 0.005% Triton X-114, 120 µM L-Ala, 120 µM UDP-N-acetyl-muramic acid, 450 µM ATP, purified MurC, and 50 or 100 µM of each compound tested.
All compounds were soluble in the assay mixtures containing 5% DMSO (v/v). After incubation for 15 min (20 min for DdlB) at 37 °C, the enzyme reaction was terminated by addition of Biomol® reagent (100 µL) and absorbance was measured after 5 min at 650 nm (Synergy™ H4 microplate reader; BioTek Instruments, Inc., BioTek Gen5 Data Analysis Software, version 2.9, Santa Clara, CA, USA). All experiments were performed in duplicate.

hMAO-B = target: T1, hMAO-B (Homo sapiens, UniProt P27338); test: biochemical; settings: for remaining activity at 10 µM / hMAO-B RA [%]: residual activity at 10 µM; for remaining activity at 10 µM: read-out: hMAO-B RA (%); for IC50: IC50 ± SEM
T1 construct: purchased Sigma Aldrich; host or cells: BTI-TN-5B1-4 baculovirus-infected insect cells
T1 sequence (P27338 1-520): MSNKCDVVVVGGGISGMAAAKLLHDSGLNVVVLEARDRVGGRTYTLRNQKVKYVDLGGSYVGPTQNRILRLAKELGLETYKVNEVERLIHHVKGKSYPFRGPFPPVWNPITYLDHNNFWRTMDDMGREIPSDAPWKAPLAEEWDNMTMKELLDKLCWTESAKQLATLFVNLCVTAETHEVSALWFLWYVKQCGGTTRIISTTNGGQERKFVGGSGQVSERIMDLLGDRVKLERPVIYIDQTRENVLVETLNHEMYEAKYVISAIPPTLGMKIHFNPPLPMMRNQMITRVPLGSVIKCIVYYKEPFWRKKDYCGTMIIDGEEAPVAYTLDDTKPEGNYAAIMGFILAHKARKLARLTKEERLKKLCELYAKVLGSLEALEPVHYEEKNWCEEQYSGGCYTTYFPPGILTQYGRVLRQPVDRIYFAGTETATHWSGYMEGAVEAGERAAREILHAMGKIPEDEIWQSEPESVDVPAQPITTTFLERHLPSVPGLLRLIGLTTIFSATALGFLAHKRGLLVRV
Text: (§1) The effects of the compounds on hMAO-A and hMAO-B were investigated using a fluorimetric assay, following a method previously described in the literature. Recombinant human microsomal hMAO enzymes expressed in BTI-TN-5B1-4 baculovirus-infected insect cells, horseradish peroxidase (HRP, type II, lyophilized powder), and p-tyramine hydrochloride were purchased from Sigma Aldrich. 10-Acetyl-3,7-dihydroxyphenoxazine (Amplex Red reagent) was synthesized as described in the literature.
After preincubation, the reaction was started by adding final concentrations of 200 µM Amplex Red reagent, 2 U/mL HRP, and 1 mM p-tyramine hydrochloride. Resorufin production was quantified based on the fluorescence produced (λex = 530 nm; λem = 590 nm) at 37 °C over a 20 min period. For the control experiments, DMSO was used instead of appropriate dilutions of the compounds in DMSO. For the determination of blank (b), the enzyme solution was replaced by a phosphate-buffered solution. Initial velocities were calculated from the obtained trend, with each measurement performed in duplicate. Specific fluorescence emission to determine the final results was calculated after subtracting the blank activity (b). Inhibitory potencies were expressed as RAs, and IC50 values were calculated as described in the section “Inhibition of hBChE and mAChE” above.

hMAO-A = target: T2, hMAO-A (Homo sapiens, UniProt P21397); test: Inhibition of hMAO-A, fluorimetric Amplex Red assay; type: biochemical; settings: residual activity at 10 µM; for remaining activity at 10 µM: read-out: hMAO-A RA (%)
T2 construct: purchased Sigma Aldrich; host or cells: BTI-TN-5B1-4 baculovirus-infected insect cells
T2 sequence (P21397 1-527): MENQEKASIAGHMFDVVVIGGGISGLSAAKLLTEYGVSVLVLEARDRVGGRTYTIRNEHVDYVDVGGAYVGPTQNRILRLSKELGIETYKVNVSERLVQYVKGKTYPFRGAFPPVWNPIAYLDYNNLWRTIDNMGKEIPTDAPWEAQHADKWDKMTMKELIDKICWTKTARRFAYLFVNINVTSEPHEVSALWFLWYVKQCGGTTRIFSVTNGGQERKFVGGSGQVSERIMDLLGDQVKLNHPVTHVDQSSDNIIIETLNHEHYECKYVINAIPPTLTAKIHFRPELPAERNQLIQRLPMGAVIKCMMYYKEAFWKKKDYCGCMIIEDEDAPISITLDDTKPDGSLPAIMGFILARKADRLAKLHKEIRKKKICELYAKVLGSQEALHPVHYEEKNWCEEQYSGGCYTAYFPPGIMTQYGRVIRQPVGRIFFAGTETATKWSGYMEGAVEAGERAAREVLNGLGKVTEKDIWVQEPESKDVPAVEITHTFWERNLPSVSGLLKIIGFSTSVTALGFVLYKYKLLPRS
Procedure: as §1
Briefly, 100 µL of 50 mM sodium phosphate buffer (pH 7.4, 0.05% (v/v) Triton X-114), containing the compounds and hMAO-A or hMAO-B, was incubated for 15 min at 37 °C in a flat-bottomed black 96-well microplate protected from ambient light. After preincubation, the reaction was started by adding final concentrations of 200 µM Amplex Red reagent, 2 U/mL HRP, and 1 mM p-tyramine hydrochloride. Resorufin production was quantified based on the fluorescence produced (λex = 530 nm; λem = 590 nm) at 37 °C over a 20 min period. For the control experiments, DMSO was used instead of appropriate dilutions of the compounds in DMSO. For the determination of blank (b), the enzyme solution was replaced by a phosphate-buffered solution. Initial velocities were calculated from the obtained trend, with each measurement performed in duplicate. Specific fluorescence emission to determine the final results was calculated after subtracting the blank activity (b). Inhibitory potencies were expressed as RAs, and IC50 values were calculated as described in the section “Inhibition of hBChE and mAChE” above.

Sequence of MurC (P17952 whole entry): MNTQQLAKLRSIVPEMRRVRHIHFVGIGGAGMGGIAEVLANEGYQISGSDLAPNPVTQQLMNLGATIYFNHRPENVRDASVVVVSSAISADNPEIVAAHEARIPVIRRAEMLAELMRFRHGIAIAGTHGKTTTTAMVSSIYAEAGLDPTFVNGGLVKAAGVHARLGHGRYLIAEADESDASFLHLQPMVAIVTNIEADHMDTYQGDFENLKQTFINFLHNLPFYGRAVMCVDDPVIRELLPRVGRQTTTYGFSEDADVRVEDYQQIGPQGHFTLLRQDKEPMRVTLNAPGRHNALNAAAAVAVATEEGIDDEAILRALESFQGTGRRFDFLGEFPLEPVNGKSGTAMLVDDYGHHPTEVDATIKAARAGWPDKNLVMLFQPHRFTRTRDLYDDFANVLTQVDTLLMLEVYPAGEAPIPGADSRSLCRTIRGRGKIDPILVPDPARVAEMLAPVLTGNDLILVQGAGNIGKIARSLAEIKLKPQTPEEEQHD

With `CCCCc1nc2ccn(Cc3ccccc3F)c(=O)c2n1Cc1ccc(-c2ccccc2-c2nnn[nH]2)cc1` [Compound 10] the remaining activity at 100 µM (MurC) was 30% and the IC50 (MurC) was 92 ± 11 µM.

Work on `CCCCc1nc2ccn(Cc3ccccc3Cl)c(=O)c2n1Cc1ccc(-c2ccccc2-c2nnn[nH]2)cc1` [Compound 11] yielded a remaining activity at 100 µM (MurC) of 20% and an IC50 (MurC) of 77 ± 12 µM.

`CCCCc1nc2ccn(Cc3ccccc3C(=O)OC)c(=O)c2n1Cc1ccc(-c2ccccc2-c2nnn[nH]2)cc1` [Compound 12] showed a remaining activity at 100 µM (MurC) of 27% and an IC50 (MurC) of 84 ± 15 µM.

`CCCCc1nc2ccn(Cc3ccccc3C(=O)O)c(=O)c2n1Cc1ccc(-c2ccccc2-c2nnn[nH]2)cc1` [Compound 13] showed a remaining activity at 100 µM (MurC) of 34% and an IC50 (MurC) of 109 ± 26 µM.

For `CCCCc1nc2ccn(Cc3ccsc3)c(=O)c2n1Cc1ccc(-c2ccccc2-c2nnn[nH]2)cc1` [Compound 14], the remaining activity at 100 µM (MurC) was 26% and the IC50 (MurC) was 90 ± 13 µM.

With `CCCCc1nc2ccn(CC(=O)NC(C)(C)C)c(=O)c2n1Cc1ccc(-c2ccccc2S(=O)(=O)NC(=O)CCc2ccccc2)cc1F` [Compound 15] the remaining activity at 100 µM (MurC) was 59% and the “MurC inhibition (in words)” value (MurC) was “loss of MurC inhibition”.

`CCCCc1nc2ccn(CC(=O)N3CCCCC3)c(=O)c2n1Cc1ccc(-c2ccccc2S(=O)(=O)NC(=O)CCc2ccccc2)cc1F` [Compound 16] showed a remaining activity at 100 µM (MurC) of 53%.

`CCCCc1nc2ccn(CC(=O)C(C)(C)C)c(=O)c2n1Cc1ccc(-c2ccccc2-c2nnn[nH]2)cc1` [Compound 17] was tested, and the remaining activity at 100 µM (MurC) was 75% and the “MurC inhibition (in words)” value (MurC) was “loss of MurC inhibition”.

With `CCCCc1nc2ccn(Cc3ccccc3C(=O)OCC)c(=O)c2n1Cc1ccc(-c2ccccc2C#N)cc1` [Compound 18] the remaining activity at 100 µM (MurC) was 58%.

With `CCCCc1nc2ccn(Cc3ccccc3-c3ccccc3)c(=O)c2n1Cc1ccc(-c2ccccc2-c2nnn[nH]2)cc1` [Compound 19] the remaining activity at 100 µM (MurC) was 15% and the IC50 (MurC) was 75 ± 9 µM.

`CNC(=O)c1cc(Oc2ccc(NC(=O)Nc3cc(C(F)(F)F)ccc3-n3cncn3)cc2)ccn1` [Compound 20] was tested, and the remaining activity at 10 µM (hMAO-B; Table 3) was 99% and the “hMAO-A RA [%]” value (hMAO-A; Table 3) was 60%.

With `CNC(=O)c1cc(Oc2ccc(NC(=O)Nc3cc(C(F)(F)F)ccc3-n3cncn3)cc2)ccn1` [Compound 21] the “hMAO-B RA [%]” value (hMAO-B; Table 3) was 88% and the “hMAO-A RA [%]” value (hMAO-A; Table 3) was 92%.

`Nc1ncnc2c1ncn2-c1ccc(NC(=O)Nc2cc(C(F)(F)F)ccc2-n2cncn2)cc1` [Compound 22] showed an IC50 (hMAO-B; Table 3) of 0.71 ± 0.1 µM, a remaining activity at 10 µM (hMAO-B; Table 3) of 6% and a remaining activity at 10 µM (hMAO-A; Table 3) of 111%.

`Nc1ccc(NC(=O)Nc2cc(C(F)(F)F)ccc2-n2cncn2)cc1` [Compound 23] showed an IC50 (hMAO-B; Table 3) of 3 ± 0.8 µM, a remaining activity at 10 µM (hMAO-B; Table 3) of 24% and a remaining activity at 10 µM (hMAO-A; Table 3) of 100%.

With `CNC(=O)c1cc(Oc2ccc(NC(=O)Nc3cc(C(F)(F)F)ccc3F)cc2)ccn1` [Compound 24] the remaining activity at 10 µM (hMAO-B; Table 3) was 100% and the remaining activity at 10 µM (hMAO-A; Table 3) was 100%.

Compound `O=C(Nc1cc(C(F)(F)F)ccc1-n1cncn1)Nc1ccc(OCCN2CCOCC2)c2ccccc12` [Compound 25] has a remaining activity at 10 µM (hMAO-B; Table 3) of 86% and a remaining activity at 10 µM (hMAO-A; Table 3) of 79%.

`CNC(=O)c1cc(Oc2ccc(NC(=O)Nc3cc(C(F)(F)F)ccc3-n3cncn3)cc2)cc[n+]1[O-]` [Compound 26] gave a remaining activity at 10 µM (hMAO-B; Table 3) of 98% and a remaining activity at 10 µM (hMAO-A; Table 3) of 89%.

With `CN(C)CCOc1ccc(NC(=O)Nc2cc(C(F)(F)F)ccc2-n2cncn2)cc1` [Compound 27] the IC50 (hMAO-B; Table 3) was 0.465 ± 0.042 µM, the remaining activity at 10 µM (hMAO-B; Table 3) was 6% and the remaining activity at 10 µM (hMAO-A; Table 3) was 117%.

In the case of `O=C(Nc1ccc(OCCN2CCCCC2)cc1)Nc1cc(C(F)(F)F)ccc1-n1cncn1` [Compound 28], the IC50 (hMAO-B; Table 3) is reported as 2.6 ± 0.1 µM, the remaining activity at 10 µM (hMAO-B; Table 3) is reported as 15% and the remaining activity at 10 µM (hMAO-A; Table 3) is reported as 94%.

Work on `CNC(=O)c1cc(Oc2ccc(NC(=O)Nc3ccc(Cl)c(C(F)(F)F)c3)cc2)ccn1` [Compound 29] yielded a remaining activity at 10 µM (hMAO-B; Table 3) of 89% and a remaining activity at 10 µM (hMAO-A; Table 3) of 86%.

For `FC(F)(F)c1ccc2nccc(OCC3CCCN3c3ccnc4ncnn34)c2c1` (stereo not drawn) [Compound S1], the “hMAO-B RA [%]” value (hMAO-B; Table S3) was 75% and the “hMAO-A RA [%]” value (hMAO-A; Table S3) was 70%.

With `c1cc(OCC2CCCN2c2ccnc3ncnn23)c2ccncc2c1` (stereo not drawn) [Compound S2] the “hMAO-B RA [%]” value (hMAO-B; Table S3) was 88% and the “hMAO-A RA [%]” value (hMAO-A; Table S3) was 87%.

With `N#Cc1cccc(C(=O)OCC2CCCN2c2ccnc3ncnn23)c1` (stereo not drawn) [Compound S3] the “hMAO-B RA [%]” value (hMAO-B; Table S3) was 91% and the “hMAO-A RA [%]” value (hMAO-A; Table S3) was 96%.

`c1cc(OCC2CCCN2c2ccnc3ncnn23)c2cccnc2c1` (stereo not drawn) [Compound S4] was tested, and the “hMAO-B RA [%]” value (hMAO-B; Table S3) was 99% and the “hMAO-A RA [%]” value (hMAO-A; Table S3) was 80%.

In the case of `CC(=O)N1CCc2cccc(OCC3CCCN3c3ccnc4ncnn34)c2C1` (stereo not drawn) [Compound S5], the “hMAO-B RA [%]” value (hMAO-B; Table S3) is reported as 98% and the “hMAO-A RA [%]” value (hMAO-A; Table S3) is reported as 94%.

In the case of `CCOc1cccc(C(=O)OCC2CCCN2c2ccnc3ncnn23)c1` (stereo not drawn) [Compound S6], the “hMAO-B RA [%]” value (hMAO-B; Table S3) is reported as 88% and the “hMAO-A RA [%]” value (hMAO-A; Table S3) is reported as 96%.

With `O=C(OCC1CCCN1c1ccnc2ncnn12)c1cccc(CCl)c1` (stereo not drawn) [Compound S7] the “hMAO-B RA [%]” value (hMAO-B; Table S3) was 93% and the “hMAO-A RA [%]” value (hMAO-A; Table S3) was 70%.

With `O=C(NCCc1ccc(Cl)cc1)c1cc(OCC2CCCN2c2ccnc3ncnn23)c2ccccc2n1` (stereo not drawn) [Compound S8] the “hMAO-B RA [%]” value (hMAO-B; Table S3) was 104% and the “hMAO-A RA [%]” value (hMAO-A; Table S3) was 86%.

`O=C(OCC1CCCN1c1ccnc2ncnn12)c1ccccc1I` (stereo not drawn) [Compound S9] was tested, and the “hMAO-B RA [%]” value (hMAO-B; Table S3) was 93% and the “hMAO-A RA [%]” value (hMAO-A; Table S3) was 90%.

With `O=C(OCC1CCCN1c1ccnc2ncnn12)c1cccc(OC(F)(F)F)c1` (stereo not drawn) [Compound S10] the “hMAO-B RA [%]” value (hMAO-B; Table S3) was 81% and the “hMAO-A RA [%]” value (hMAO-A; Table S3) was 92%.

Work on `COc1ccc2c3c([nH]c2c1)C(C)=NCC3` [Harmaline, reference compound] yielded a remaining activity at 10 µM (hMAO-A; Table 3) of 0%.
